What was measured:
[1] = system: BXM14 cells, a cultured cell line of mouse ES cells; test: Calreticulin expression-promoting activity in ES cells, immunofluorescent antibody technique (Example 4); format: cell-based; conditions: mouse ES cells BXM14, peptide 50 μM, 3 days culture, confocal laser microscopy
Description: The calreticulin expression-promoting activity of the Samples 1 to 12 obtained in Example 1 was investigated. BXM14 cells, a cultured cell line of mouse ES cells (hereunder sometimes called “BXM14”), were used as the test cells. The details of the evaluation test were as follows.
The sample ES cells (BXM14) were seeded to a cell density of about 1×10^4 cells per well on 4-well slides. Using DMEM medium (Wako Pure Chemical, Cat No. 043-30085) containing 15% Knockout™ Serum Replacement (hereunder sometimes called “KSR”; Life Technologies, Cat No. 10828), 0.1 mM Non-essential Amino Acids Solution (hereunder sometimes called “NEAA”; Wako Pure Chemical, Cat No. 139-15651), 0.1 mM 2-mercaptoethanol (Sigma-Aldrich, Cat No. M7522) and 1000 units/mL of StemSure™ LIF, Mouse, recombinant, Solution (hereunder sometimes called “mLIF”; Wako Pure Chemical, Cat No. 199-116051), the cells were cultured overnight in an incubator under conditions of 5% CO2, 37° C. The DMEM medium containing KSR, NEAA, 2-mercaptoethanol and mLIF is also called simply “ES DMEM medium”. […]
These figures (images) are fluorescence micrographs examining calreticulin expression in each test group, and each combines (merges) a fluorescent image showing results for calreticulin expression in ES cells as measured by the immunofluorescent antibody technique with an image showing nuclear staining by DAPI.

[2] = system: iPS cells (clone name 201B2); test: Calreticulin expression-promoting activity in iPS cells, immunofluorescent antibody technique (Example 3); format: cell-based; conditions: human iPS cells 201B2, peptide 10 μM, 5 days culture, confocal laser microscopy
Description: The calreticulin expression-promoting activity of the Samples 1 to 12 obtained in Example 1 was investigated. iPS cells (clone name 201B2, sometimes called simply 201B2 below) established from human fibroblasts were used as the test cells (source: Takahashi K et al., Cell, 131, 861-872 (2007)). These iPS cells were supplied by the Center for iPS Cell Research and Application, Kyoto University.
The test iPS cells (201B2) were seeded to a cell density of about 1×10^4 cells per well on matrigel-coated 8-well slides. Using mTeSR™ 1 medium (Stemcell Technologies) as the medium, the cells were cultured overnight in an incubator under conditions of 5% CO2, 37° C. Following this overnight culture, fresh mTeSR™ medium containing the peptides of Samples 1 to 12 in an amount yielding a peptide concentration of 10 μM was substituted, and the cells were further cultured for 5 days under the same conditions. Every day during this 5-day culture period, the medium was replaced with mTeSR™ 1 medium containing the peptides of Samples 1 to 12 in an amount yielding a peptide concentration of 10 μM. A peptide-free group was established as a control.
After completion of this culture, calreticulin expression in each test group was investigated by the immunofluorescent antibody technique (fluorescent immunostaining) using an anti-calreticulin antibody as in Example 2 except that a mixed solution of 1 vol. methanol and 1 vol. acetone (methanol:acetone=1:1 solution) was used to fix the cells, and the final concentration of the primary antibody was adjusted to 4×10^−3 mg/mL.
These figures are fluorescence micrographs examining calreticulin expression in each test group, and each combines (merges) a fluorescent image showing results for calreticulin expression in iPS cells as measured by the immunofluorescent antibody technique with an image showing nuclear staining by DAPI.

HeLaS3 cells = test: Calreticulin expression-promoting activity in tumor cells, immunofluorescent antibody technique (Example 2); format: cell-based, human; conditions: peptide 10 μM, 5 days culture, confocal laser microscopy
Excerpt: The calreticulin expression-promoting activity of the peptides of the Samples 1 to 12 obtained in Example 1 above was investigated. The sample cells were HeLaS3 cells (ATCC CCL2.2), a cultured cell line derived from human cervical cancer. These HeLaS3 cells (ATCC CCL2.2) are known as a genomically unstable cultured cell line, which has been confirmed to have multiple chromosome duplications or in other words chromosomal abnormalities (karyotypic abnormalities). The details of the evaluation test are as follows.
HeLaS3 cells were seeded on 8-well slides to a cell density of about 1×10^3 cells per well. […]
A diluted primary antibody solution comprising an anti-calreticulin monoclonal [FMC75] antibody (from mouse, Abcam, Cat. No. ab22683, Lot No. GR56669-4) as the primary antibody prepared with 1% BSA/PBS (−) (PBS (−) containing 1% BSA) to a final concentration of 2.5×10^−3 mg/mL was added to the culture containers of the HeLaS3 cells, and left overnight at 4° C. […] This was then sealed with a cover glass together with an enclosed liquid containing DAPI (4′,6-diamidino-2-phenylindole) (Life Technologies), and fluorescence was observed by confocal laser microscopy. […]

Sequence | fluorescence of the fluorescent label indicating calreticulin (expressed amount of calreticulin) compared with the peptide-free group and Sample 12 [2] | also measured
CRAKAGDPC [Sample 1] | – | fluorescence of the fluorescent label indicating calreticulin (amount of calreticulin expression) compared with the peptide-free group and Sample 12 [1]: stronger fluorescence
KKRTLRKNDRKKR CRAKAGDPC (KKRTLRKNDRKKRCRAKAGDPC) [Sample 9] | stronger fluorescence | –
KKRTLRKNDRKKR GPRPPSLEC (KKRTLRKNDRKKRGPRPPSLEC) [Sample 11] | strong fluorescence | –
KKRTLRKNDRKKR NPGASF (KKRTLRKNDRKKRNPGASF) [Sample 10] | strong fluorescence | –
LAARAVRFSEKV [Sample 12] | – | fluorescence of the fluorescent label indicating calreticulin (expressed amount of calreticulin) compared with the peptide-free group (HeLaS3 cells): almost no fluorescence was detected
